This note sets out measurements from PubChem BioAssay AID276 (DTP/NCI, 2004).

The test relates to B6C3F1 mice, Lewis lung carcinoma iv, survival T/C. The experiment in a line: NCI In Vivo Anticancer Drug Screen. Data for tumor model Lewis Lung Carcinoma (intravenous) in B6C3F1 mice. Particulars: endpoint: median survival time, schedule: Q01DX009 (ip), higher = longer survival. A digest of the protocol: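 Transplantable tumor in mice; compound treated vs vehicle controls; read-out survival; value = treated/control (T/C).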

The mark [1] stands for this setting: dose: 25.0 mg/kg/injection, vehicle: suspension in saline.
Setting [2] is: dose: 50.0 mg/kg/injection, vehicle: suspension in saline.
The mark [3] stands for this setting: dose: 100.0 mg/kg/injection, vehicle: suspension in saline.
[4] abbreviates: dose: 200.0 mg/kg/injection, vehicle: suspension in saline.
Setting [5] is: dose: 3.12 mg/kg/injection, vehicle: saline.
The mark [6] stands for this setting: dose: 6.25 mg/kg/injection, vehicle: saline.
[7] abbreviates: dose: 3.12 mg/kg/injection, vehicle: saline with Tween-80.
Setting [8] is: dose: 6.25 mg/kg/injection, vehicle: saline with Tween-80.
Where [9] appears, read: dose: 12.5 mg/kg/injection, vehicle: saline with Tween-80.
The mark [10] stands for this setting: dose: 25.0 mg/kg/injection, vehicle: saline with Tween-80.
Where [11] appears, read: dose: 50.0 mg/kg/injection, vehicle: saline with Tween-80.
[12] abbreviates: dose: 12.0 mg/kg/injection, vehicle: saline.
The mark [13] stands for this setting: dose: 12.5 mg/kg/injection, vehicle: saline.
The mark [14] stands for this setting: dose: 50.0 mg/kg/injection, vehicle: saline.
[15] abbreviates: dose: 25.0 mg/kg/injection, vehicle: Klucel (hydroxypropylcellulose) (HPC).
Setting [16] is: dose: 50.0 mg/kg/injection, vehicle: Klucel (hydroxypropylcellulose) (HPC).
Where [17] appears, read: dose: 100.0 mg/kg/injection, vehicle: Klucel (hydroxypropylcellulose) (HPC).
Setting [18] is: dose: 200.0 mg/kg/injection, vehicle: Klucel (hydroxypropylcellulose) (HPC).
The mark [19] stands for this setting: dose: 25.0 mg/kg/injection, vehicle: saline.
Setting [20] is: dose: 100.0 mg/kg/injection, vehicle: saline.
Where [21] appears, read: dose: 200.0 mg/kg/injection, vehicle: saline.
Setting [22] is: dose: 400.0 mg/kg/injection, vehicle: saline.
Where [23] appears, read: dose: 100.0 mg/kg/injection, vehicle: saline with Tween-80.

Where “and” joins values, the source holds several entries; their conditions need not be identical. Identical values can stand only once. Toxic doses and inconclusive results are not listed.

Consider `CS(=O)(=O)Nc1ccc(C(=O)CCN2CCCCCC2)cc1`, for which the T/C was 95 % of control under setting [1]; 100 % of control under setting [2]; 105 % of control under setting [3]; 100 % of control under setting [4]; 102 % of control (dose: 400.0 mg/kg/injection, vehicle: suspension in saline).
On to `O=NN(CCCl)C(=O)NCCCl`, for which the T/C is 105 % of control (dose: 1.5 mg/kg/injection, vehicle: Klucel (hydroxypropylcellulose) (HPC)); 107 % of control (dose: 1.5 mg/kg/injection, vehicle: saline + alcohol); 120 % of control (dose: 3.0 mg/kg/injection, vehicle: Klucel (hydroxypropylcellulose) (HPC)); 121 % of control (dose: 3.0 mg/kg/injection, vehicle: saline + alcohol); 303 % of control (dose: 5.0 mg/kg/injection, vehicle: saline with Tween-80); 152 % of control (dose: 6.0 mg/kg/injection, vehicle: saline + alcohol). The T/C (dose: 10.0 mg/kg/injection, vehicle: saline with Tween-80) is 181 % of control; the T/C (dose: 12.0 mg/kg/injection, vehicle: Klucel (hydroxypropylcellulose) (HPC)) was 114 % of control; the T/C (dose: 12.0 mg/kg/injection, vehicle: saline + alcohol) was 180 % of control.
As to `C[n+]1c(-c2cccc3ccccc23)c2cc(N)ccc2c2ccccc21`, the T/C is 94 % of control under setting [5] and 90 % of control under setting [6].
For the compound `CCCCCCCCCCCCSC1=C(Cl)C(=O)C(OC)=C(OC)C1=O`, the T/C is, setting by setting: under setting [7], 99 % of control; under setting [8], 94 % of control; under setting [9], 99 % of control; under setting [10], 94 % of control; under setting [11], 96 % of control.
Consider `Cc1cc2nc3c(=O)[nH]c(=O)nc-3n(CC(O)C(O)C(O)C(O)CO)c2cc1C` (stereo not drawn), for which the T/C under setting [1] is 95 % of control, the T/C under setting [2] is 110 % of control, the T/C under setting [3] was 111 % of control and the T/C under setting [4] is 115 % of control.
Regarding `Cc1cc(NCCCCCCCCNc2cc(C)nc3cc(N(C)C)ccc23)c2ccc(N(C)C)cc2n1`, the T/C runs as follows: (dose: 3.12 mg/kg/injection, vehicle: distilled water + Tween-80 + alcohol) 102 % of control; (dose: 6.25 mg/kg/injection, vehicle: distilled water + Tween-80 + alcohol) 102 % of control; (dose: 12.5 mg/kg/injection, vehicle: distilled water + Tween-80 + alcohol) 109 % of control; (dose: 25.0 mg/kg/injection, vehicle: distilled water + Tween-80 + alcohol) 111 % of control and 118 % of control.
For `[N-]=[N+]=[N-]`, the T/C (dose: 1.5 mg/kg/injection, vehicle: saline) was 96 % of control; the T/C (dose: 3.0 mg/kg/injection, vehicle: saline) is 98 % of control; the T/C (dose: 6.0 mg/kg/injection, vehicle: saline) is 106 % of control; the T/C under setting [12] was 95 % of control.
For `CCC1OC(OC)C=CC1=O` (stereo not drawn), the T/C by setting is: under setting [13], 97 % of control; under setting [14], 97 % of control.
Consider `S=C(Nc1ccc(Cl)c(Cl)c1)N1c2ccccc2-n2cccc2C1c1cccnc1` (stereo not drawn), for which the T/C (dose: 12.5 mg/kg/injection, vehicle: Klucel (hydroxypropylcellulose) (HPC)) is 106 % of control; the T/C under setting [15] is 109 % of control; the T/C under setting [16] was 98 % of control; the T/C under setting [17] is 102 % of control; the T/C under setting [18] is 113 % of control.
On to `COC(OC(CO)C(O)S(=O)(=O)O)C(O)S(=O)(=O)O` (stereo not drawn), for which the T/C was 109 % of control under setting [13]; 106 % of control under setting [19]; 97 % of control under setting [14]; 102 % of control under setting [20]; 98 % of control under setting [21].
On to `CCC1=C2C(=O)c3ccccc3C2=C(C)S(=O)(=O)O1`, for which the T/C is, setting by setting: under setting [7], 104 % of control; under setting [8], 99 % of control; under setting [9], 97 % of control; under setting [10], 107 % of control.
`CCCCCC[C@@H](O)C/C=C\CCCCCCCC(=O)OCCO`: the T/C reads like this: under setting [19], 91 % of control; under setting [14], 100 % of control; under setting [20], 99 % of control; under setting [21], 101 % of control; under setting [22], 99 % of control; (dose: 800.0 mg/kg/injection, vehicle: saline) 100 % of control.
For the compound `CC1=C/C(O)CC(=O)Cc2nc(co2)C(=O)N2CCC=C2C(=O)OC(C(C)C)C(C)/C=C\C(=O)NC/C=C\1` (stereo not drawn), the T/C is 98 % of control under setting [15]; 104 % of control under setting [16]; 92 % of control under setting [17]; 97 % of control under setting [18]; 104 % of control (dose: 400.0 mg/kg/injection, vehicle: Klucel (hydroxypropylcellulose) (HPC)).
In the case of `Nc1nc2c(C(=O)N3CCCC3)nnn2c2ccccc12`, the T/C is, setting by setting: under setting [8], 100 % of control; under setting [9], 99 % of control; under setting [10], 100 % of control; under setting [11], 107 % of control; under setting [23], 99 % of control.
Take `CCCCCCOC(CN(C)C)C(Cl)(Cl)Cl` (stereo not drawn): the T/C by setting is: under setting [9], 106 % of control; under setting [10], 96 % of control; under setting [11], 90 % of control; under setting [23], 95 % of control; (dose: 200.0 mg/kg/injection, vehicle: saline with Tween-80) 95 % of control.
As to `Cc1ccccc1CN1C2=NCCN2C(=O)C2=C1CCN(S(=O)(=O)c1ccc(Cl)c(S(N)(=O)=O)c1)C2`, the T/C is, setting by setting: under setting [12], 103 % of control; under setting [19], 99 % of control; under setting [14], 94 % of control; under setting [20], 99 % of control and 101 % of control; under setting [21], 96 % of control and 102 % of control; under setting [22], 94 % of control and 98 % of control.
Consider `CC(C)NCC(O)COc1ccc(O)c(O)c1` (stereo not drawn), for which the T/C under setting [19] was 93 % of control and 96 % of control; the T/C under setting [14] is 98 % of control and 100 % of control; the T/C under setting [20] was 89 % of control and 96 % of control; the T/C under setting [21] was 98 % of control.
Regarding `[CH3][Sn]([CH3])([Cl])[S]CCN`, the T/C under setting [5] is 99 % of control; the T/C under setting [6] is 105 % of control; the T/C under setting [13] is 99 % of control; the T/C under setting [19] was 100 % of control; the T/C under setting [14] was 96 % of control.
Take `O=CC(O)C(O)C(O)C(O)CO` (stereo not drawn): the T/C by setting is: (dose: 75.0 mg/kg/injection, vehicle: saline) 101 % of control; (dose: 150.0 mg/kg/injection, vehicle: saline) 97 % of control; (dose: 300.0 mg/kg/injection, vehicle: saline) 97 % of control; (dose: 600.0 mg/kg/injection, vehicle: saline) 97 % of control; (dose: 1200.0 mg/kg/injection, vehicle: saline) 96 % of control.
`C=C(C(=O)O)C(N)C(=O)O` (stereo not drawn): the T/C reads like this: under setting [19], 95 % of control; under setting [14], 102 % of control; under setting [20], 100 % of control; under setting [21], 117 % of control.
Turning to `CCc1nc(N)nc(N)c1-c1ccc(Cl)c([N+](=O)[O-])c1`, the T/C is, setting by setting: (dose: 1.56 mg/kg/injection, vehicle: saline with Tween-80) 104 % of control; under setting [7], 105 % of control; under setting [8], 104 % of control; under setting [9], 105 % of control.
